# Results published in US20180246095A1, “COMPOSITIONS AND METHODS FOR DIAGNOSING AND TREATING LYME DISEASE” (priority 2015, published 2018).
# System: B. burgdorferi B31
# Assay: RNA-Seq gene expression profile of B. burgdorferi persisters that survived antibiotic treatment, compared with drug free control
# Type: cell-based, Borrelia burgdorferi
# Protocol: RNA Sequencing (RNA-Seq) was performed to determine the gene expression profile of B. burgdorferi persisters that survived antibiotic treatment using next generation sequencing to shed light on the mechanisms of B. burgdorferi persistence. B. burgdorferi B31 cultures were grown for 5 days to 1×10^7 spirochetes/ml in BSK-H medium followed by treatment with 50 μg/ml doxycycline or 50 μg/ml amoxicillin for 6 days. Triplicate biological samples were used for each group. The total RNA was extracted and ribosomal RNA was removed prior to preparation of cDNA libraries for Illumina sequencing. […] The RNA-Seq data was analyzed by BLAST analysis and mapped to KEGG pathways.
smiles,measurement,setting,value
CC1(C)S[C@@H]2[C@H](NC(=O)[C@H](N)c3ccc(O)cc3)C(=O)N2[C@H]1C(=O)O [Amo],Expression BB_U05,"gene BB_U05, PF-32 protein",0
same,Expression BB_U06,"gene BB_U06, plasmid partition protein",0
same,Expression BB_U07,"gene BB_U07, protein BBC01",0
same,Expression BB_U08,"gene BB_U08, SUA5 subfamily protein",0
same,Expression BB_U09,"gene BB_U09, TM2 family protein",0
same,Expression BB_U10,"gene BB_U10, protein BBC01",0
same,Expression BB_U11,"gene BB_U11, Sua5/YciO/YrdC/YwlC family protein",0
same,Expression BB_t19,"gene BB_t19, Ser tRNA",7
same,Expression BB_t26,"gene BB_t26, Arg tRNA",0
same,Expression BB_t27,"gene BB_t27, Leu tRNA",2
same,Expression BB_L35,"gene bdrO BB_L35, protein BdrO",0
same,Expression BB_N34,"gene bdrQ BB_N34, BdrQ",1
same,Expression BB_Q34,"gene bdrW BB_Q34, protein BdrW protein",1
same,Expression BB_L23,"gene blyA BB_L23, holin protein",0
same,Expression BB_L24,"gene blyB BB_L24, holin protein",0
same,Expression BB_L36,"gene bppA BB_L36, protein BppA",0
same,Expression BB_L37,"gene bppB BB_L37, protein BppB",1
same,Expression BB_Q47,"gene erpX BB_Q47, protein ErpX",0
same,Expression BB_L28,"gene mlpH BB_L28, lipoprotein",1
same,Expression BB_t16,"gene tRNA-Arg-3 BB_t16, Arg tRNA",3
same,Expression BB_t08,"gene tRNA-His-1 BB_t08, His tRNA",0
same,Expression BB_t07,"gene tRNA-Lys-2 BB_t07, Lys tRNA",0
same,Expression BB_t14,"gene tRNA-Thr-2 BB_t14, Thr tRNA",0
same,Expression BB_t03,"gene tRNA-Trp-1 BB_t03, Trp tRNA",1
same,Expression BB_I16,"gene vraA BB_I16, repetitive antigen A",0
same,Expression BB_0368,glycerol-3-phosphate dehydrogenase,95
same,Expression BB_0185,glycoprotease family protein,50
same,Expression blyB BB_R24,hemolysin accessory protein,0
same,Expression blyA BB_M23,holin protein,0
same,Expression blyA BB_N23,holin protein,50
same,Expression blyA BB_P23,holin protein,64
same,Expression blyA BB_S23,holin protein,0
same,Expression blyB BB_N24,holin protein,0
same,Expression blyB BB_S24,holin protein,0
same,Expression BB_0024,hypothetical protein,390
same,Expression BB_0029,hypothetical protein,114
same,Expression BB_0044,hypothetical protein,0
same,Expression BB_0102,hypothetical protein,53
same,Expression BB_0162,hypothetical protein,401
same,Expression BB_0238,hypothetical protein,26
same,Expression BB_0242,hypothetical protein,2
same,Expression BB_0252,hypothetical protein,497
same,Expression BB_0308,hypothetical protein,0
same,Expression BB_0322,hypothetical protein,1
same,Expression BB_0331,hypothetical protein,5
same,Expression BB_0336,hypothetical protein,61
same,Expression BB_0352,hypothetical protein,66
same,Expression BB_0367,hypothetical protein,176
same,Expression BB_0373,hypothetical protein,4
same,Expression BB_0378,hypothetical protein,129
same,Expression BB_0428,hypothetical protein,627
same,Expression BB_0525,hypothetical protein,73
same,Expression BB_0549,hypothetical protein,0
same,Expression BB_0576,hypothetical protein,140
same,Expression BB_0646,hypothetical protein,444
same,Expression BB_0663,hypothetical protein,533
same,Expression BB_0673,hypothetical protein,15
same,Expression BB_0707,hypothetical protein,35
same,Expression BB_0739,hypothetical protein,51
same,Expression BB_0799,hypothetical protein,2
same,Expression BB_0824,hypothetical protein,98
same,Expression BB_0838a,hypothetical protein,4
same,Expression BB_A09,hypothetical protein,50
same,Expression BB_A13,hypothetical protein,256
same,Expression BB_A61,hypothetical protein,133
same,Expression BB_D22,hypothetical protein,5
same,Expression BB_D24,hypothetical protein,0
same,Expression BB_D0027,hypothetical protein,0
same,Expression BB_G33,hypothetical protein,13
same,Expression BB_G34,hypothetical protein,439
same,Expression BB_H05,hypothetical protein,23
same,Expression BB_H27,hypothetical protein,4
same,Expression BB_J13,hypothetical protein,5
same,Expression BB_J19,hypothetical protein,3
same,Expression BB_J24,hypothetical protein,0
same,Expression BB_J46,hypothetical protein,17
same,Expression BB_J47,hypothetical protein,69
same,Expression BB_J0056,hypothetical protein,13
same,Expression BB_L19,hypothetical protein,24
same,Expression BB_L20,hypothetical protein,22
same,Expression BB_L25,hypothetical protein,13
same,Expression BB_L26,hypothetical protein,1
same,Expression BB_L41,hypothetical protein,0
same,Expression BB_M12,hypothetical protein,0
same,Expression BB_M13,hypothetical protein,0
same,Expression BB_M14,hypothetical protein,0
same,Expression BB_M15,hypothetical protein,0
same,Expression BB_M17,hypothetical protein,0
same,Expression BB_M25,hypothetical protein,0
same,Expression BB_M30,hypothetical protein,0
same,Expression BB_M39,hypothetical protein,0
same,Expression BB_M41,hypothetical protein,0
same,Expression BB_N20,hypothetical protein,68
same,Expression BB_N30,hypothetical protein,1
same,Expression BB_N41,hypothetical protein,47
same,Expression BB_O02,hypothetical protein,0
same,Expression BB_O03,hypothetical protein,0
same,Expression BB_O04,hypothetical protein,0
same,Expression BB_O05,hypothetical protein,0
same,Expression BB_O06,hypothetical protein,0
same,Expression BB_O08,hypothetical protein,0
same,Expression BB_O09,hypothetical protein,0
same,Expression BB_O10,hypothetical protein,0
same,Expression BB_O13,hypothetical protein,0
same,Expression BB_O29,hypothetical protein,46
same,Expression BB_O31,hypothetical protein,0
same,Expression BB_P20,hypothetical protein,288
same,Expression BB_P21,hypothetical protein,291
same,Expression BB_P30,hypothetical protein,5
same,Expression BB_Q27,hypothetical protein,36
same,Expression BB_Q28,hypothetical protein,22
same,Expression BB_Q32,hypothetical protein,14
same,Expression BB_Q33,hypothetical protein,147
same,Expression BB_Q38,hypothetical protein,0
same,Expression BB_Q39,hypothetical protein,0
same,Expression BB_Q54,hypothetical protein,1
same,Expression BB_Q62,hypothetical protein,1
same,Expression BB_Q0091,hypothetical protein,6
same,Expression BB_R20,hypothetical protein,73
same,Expression BB_R25,hypothetical protein,43
same,Expression BB_R26,hypothetical protein,393
same,Expression BB_R29,hypothetical protein,252
same,Expression BB_R31,hypothetical protein,0
same,Expression BB_R43,hypothetical protein,111
same,Expression BB_S06,hypothetical protein,0
same,Expression BB_S08,hypothetical protein,0
same,Expression BB_S11,hypothetical protein,0
same,Expression BB_S12,hypothetical protein,0
same,Expression BB_S13,hypothetical protein,0
same,Expression BB_S14,hypothetical protein,0
same,Expression BB_S18,hypothetical protein,0
same,Expression BB_S19,hypothetical protein,0
same,Expression BB_S20,hypothetical protein,0
same,Expression BB_S21,hypothetical protein,11
same,Expression BB_S25,hypothetical protein,120
same,Expression BB_S33,hypothetical protein,29
same,Expression BB_0316,integral membrane protein,36
same,Expression BB_0580,integral membrane protein,210
same,Expression BB_0193,lipoprotein,15
same,Expression BB_0628,lipoprotein,158
same,Expression BB_0664,lipoprotein,142
same,Expression BB_0832,lipoprotein,753
same,Expression BB_B27,lipoprotein,42
same,Expression BB_D10,lipoprotein,51
same,Expression BB_J36,lipoprotein,90
same,Expression mlpF BB_M28,lipoprotein,0
same,Expression la7 BB_0365,lipoprotein LA7,112
same,Expression BB_0593,long-chain-fatty-acid CoA ligase,24
same,Expression BB_0353,membrane protein,31
same,Expression BB_0759,membrane protein,1041
same,Expression BB_0143,membrane protein insertion efficiency factor,1085
same,Expression BB_0034,outer membrane protein P13,41
same,Expression BB_M01,phage portal protein,0
same,Expression pstC BB_0216,phosphate ABC transporter permease PstC,128
same,Expression BB_0727,phosphofructokinase,48
same,Expression BB_H29,plasmid partition protein,0
same,Expression proS BB_0402,proline--tRNA ligase,87
same,Expression bdrF BB_S29,protein BdrF,15
same,Expression bdrV BB_Q42,protein BdrV,1
same,Expression erpM BB_O40,protein ErpM,0
same,Expression BB_H13,protein RepU,3
same,Expression BB_A69,putative surface protein,98
same,Expression ksgA BB_0590,rRNA small subunit methyltransferase A,177
same,Expression dnaB BB_0111,replicative DNA helicase,144
same,Expression BB_0419,response regulator,34
same,Expression lepB BB_0263,signal peptidase I,98
same,Expression BB_0453,small conductance mechanosensitive ion channel,467
same,Expression BB_0641,spermidine/putrescine transport system permease,70
same,Expression BB_0153,superoxide dismutase,202
same,Expression BB_I39,surface antigen,8
same,Expression BB_0225,tRNA-dihydrouridine synthase A,194
same,Expression rho BB_0230,transcription termination factor Rho,22
same,Expression BB_0025,transcriptional regulator,272
same,Expression infA BB_0169,translation initiation factor IF-1,522
same,Expression ung BB_0053,uracil-DNA glycosylase,1626
same,Expression udk BB_0015,uridine kinase,37
same,Expression BB_0831,xylose operon regulatory protein,122
